# From patent US9995734B2, “Human T cell line assay for evaluating the immunologic identity of glatiramer acetate preparations” (Mylan Inc., priority 2013, dated 2018)
# “And” between values parts separate entries of the source, which are not always exact repeats. Identical values can stand only once.
# How the values were obtained:
# Donor 3 GMA T-Cell Lines = test: ATP proliferation assay (CellTiter Glo), Donor 3 GMA T-cell lines, incl. reactivity to non-canonical GA peptides; type: cell-based, human
# Donor 4 COP T-Cell Lines = test: ATP proliferation assay (CellTiter Glo), Donor 4 COP T-cell lines, incl. reactivity to non-canonical GA peptides; type: cell-based, human; details: for Non-Canonical Peptide Non-Reactivity: proliferation <2 times no antigen control; for Proliferation (luminescent ATP assay), Mean: T-cell line 205-1F4, Day 71, autologous B-LCL
substance,measurement,setting,value
poly (Glu-Ala-Tyr; 6:3:1) [GAT 631],"Proliferation (luminescent ATP assay), Mean","Donor 3 GMA T-Cell Lines; T-cell line 165-E7G, 10 μg/mL antigen, Day 81 of culturing, No Antigen Value 2145",5499 RLU
same,"Proliferation (luminescent ATP assay), Mean","Donor 3 GMA T-Cell Lines; T-cell line 165-E7G, 10 μg/mL antigen, autologous B-LCL, Day 55",3877 RLU
same,"Proliferation (luminescent ATP assay), Mean","Donor 3 GMA T-Cell Lines; T-cell line 165-E7G, 30 μg/mL antigen, Day 81 of culturing, No Antigen Value 2145",4178 RLU
same,"Proliferation (luminescent ATP assay), Mean","Donor 3 GMA T-Cell Lines; T-cell line 165-E9G, 1 μg/mL antigen, Day 50 of culturing, No Antigen Value 1742",1482 RLU
same,"Proliferation (luminescent ATP assay), Mean","Donor 3 GMA T-Cell Lines; T-cell line 165-E9G, 1.25 μg/mL antigen, autologous B-LCL",122 RLU
same,"Proliferation (luminescent ATP assay), Mean","Donor 3 GMA T-Cell Lines; T-cell line 165-E9G, 2.5 μg/mL antigen, autologous B-LCL",175 RLU
same,"Proliferation (luminescent ATP assay), Mean","Donor 3 GMA T-Cell Lines; T-cell line 165-E9G, 3 μg/mL antigen, Day 50 of culturing, No Antigen Value 1742",1593 RLU
same,"Proliferation (luminescent ATP assay), Mean","Donor 3 GMA T-Cell Lines; T-cell line 165-E9G, 5 μg/mL antigen, autologous B-LCL",207 RLU
same,"Proliferation (luminescent ATP assay), Mean","Donor 3 GMA T-Cell Lines; T-cell line 165-E9G, 10 μg/mL antigen, autologous B-LCL",179 RLU
same,"Proliferation (luminescent ATP assay), Mean","Donor 3 GMA T-Cell Lines; T-cell line 165-E9G, 30 μg/mL antigen, Day 50 of culturing, No Antigen Value 1742",1382 RLU
same,"Proliferation (luminescent ATP assay), Mean","Donor 3 GMA T-Cell Lines; T-cell line 165-E9G, 10 μpg/mL antigen, Day 50 of culturing, No Antigen Value 1742",1454 RLU
same,"Proliferation (luminescent ATP assay), Mean","Donor 3 GMA T-Cell Lines; T-cell line 165-F5G, 1.25 μg/mL antigen, autologous B-LCL",118 RLU
same,"Proliferation (luminescent ATP assay), Mean","Donor 3 GMA T-Cell Lines; T-cell line 165-F5G, 2.5 μg/mL antigen, autologous B-LCL",160 RLU
same,"Proliferation (luminescent ATP assay), Mean","Donor 3 GMA T-Cell Lines; T-cell line 165-F5G, 5 μg/mL antigen, autologous B-LCL",106 RLU
same,"Proliferation (luminescent ATP assay), Mean","Donor 3 GMA T-Cell Lines; T-cell line 165-F5G, 10 μg/mL antigen, autologous B-LCL",130 RLU
same,"Proliferation (luminescent ATP assay), Mean","Donor 3 GMA T-Cell Lines; T-cell line 165-F10G, 1 μg/mL antigen, Day 50 of culturing, No Antigen Value 3752",3755 RLU
same,"Proliferation (luminescent ATP assay), Mean","Donor 3 GMA T-Cell Lines; T-cell line 165-F10G, 1.25 μg/mL antigen, autologous B-LCL",948 RLU
same,"Proliferation (luminescent ATP assay), Mean","Donor 3 GMA T-Cell Lines; T-cell line 165-F10G, 2.5 μg/mL antigen, autologous B-LCL",1080 RLU
same,"Proliferation (luminescent ATP assay), Mean","Donor 3 GMA T-Cell Lines; T-cell line 165-F10G, 3 μg/mL antigen, Day 50 of culturing, No Antigen Value 3752",3543 RLU
same,"Proliferation (luminescent ATP assay), Mean","Donor 3 GMA T-Cell Lines; T-cell line 165-F10G, 5 μg/mL antigen, autologous B-LCL",1024 RLU
same,"Proliferation (luminescent ATP assay), Mean","Donor 3 GMA T-Cell Lines; T-cell line 165-F10G, 10 μg/mL antigen, Day 50 of culturing, No Antigen Value 3752",3702 RLU
same,"Proliferation (luminescent ATP assay), Mean","Donor 3 GMA T-Cell Lines; T-cell line 165-F10G, 10 μg/mL antigen, autologous B-LCL",944 RLU
same,"Proliferation (luminescent ATP assay), Mean","Donor 3 GMA T-Cell Lines; T-cell line 165-F10G, 30 μg/mL antigen, Day 50 of culturing, No Antigen Value 3752",3794 RLU
same,"Proliferation (luminescent ATP assay), Mean","Donor 3 GMA T-Cell Lines; T-cell line 165-H11G, 1 μg/mL antigen, Day 50 of culturing, No Antigen Value 1485",2413 RLU
same,"Proliferation (luminescent ATP assay), Mean","Donor 3 GMA T-Cell Lines; T-cell line 165-H11G, 1.25 μg/mL antigen, autologous B-LCL",43 RLU
same,"Proliferation (luminescent ATP assay), Mean","Donor 3 GMA T-Cell Lines; T-cell line 165-H11G, 2.5 μg/mL antigen, autologous B-LCL",290 RLU
same,"Proliferation (luminescent ATP assay), Mean","Donor 3 GMA T-Cell Lines; T-cell line 165-H11G, 3 μg/mL antigen, Day 50 of culturing, No Antigen Value 1485",2969 RLU
same,"Proliferation (luminescent ATP assay), Mean","Donor 3 GMA T-Cell Lines; T-cell line 165-H11G, 5 μg/mL antigen, autologous B-LCL",297 RLU
same,"Proliferation (luminescent ATP assay), Mean","Donor 3 GMA T-Cell Lines; T-cell line 165-H11G, 10 μg/mL antigen, Day 50 of culturing, No Antigen Value 1485",2995 RLU
same,"Proliferation (luminescent ATP assay), Mean","Donor 3 GMA T-Cell Lines; T-cell line 165-H11G, 10 μg/mL antigen, autologous B-LCL",305 RLU
same,"Proliferation (luminescent ATP assay), Mean","Donor 3 GMA T-Cell Lines; T-cell line 165-H11G, 30 μg/mL antigen, Day 50 of culturing, No Antigen Value 1485",3115 RLU
same,Non-Canonical Peptide Non-Reactivity,Donor 4 COP T-Cell Lines; 205-1B4,GAT 631
same,Non-Canonical Peptide Non-Reactivity,Donor 4 COP T-Cell Lines; 205-1C4,GAT 631
same,Non-Canonical Peptide Non-Reactivity,Donor 4 COP T-Cell Lines; 205-1F4,GAT 631
same,Non-Canonical Peptide Non-Reactivity,Donor 4 COP T-Cell Lines; 205-1H3,GAT 631
same,Non-Canonical Peptide Non-Reactivity,Donor 4 COP T-Cell Lines; 205-1H5,GAT 631
same,reactivity to non-canonical GA peptides,"Donor 4 COP T-Cell Lines; 205-1H7, after seven stimulations, 0, 1, 10, 30 μg/mL",not
same,Non-Canonical Peptide Non-Reactivity,Donor 4 COP T-Cell Lines; 205-1H7,GAT 631
same,Non-Canonical Peptide Non-Reactivity,Donor 4 COP T-Cell Lines; 205-1H11,GAT 631
same,Nonreactive T-Cell Line,"Donor 4 COP T-Cell Lines; Donor 4 COP lines, stimulation with the non-canonical GA peptide",205-1C4 (Donor 4) and 205-1F4 (Donor 4) and 205-1H3 (Donor 4) and 205-1H5 (Donor 4) and 205-1H7 (Donor 4) and 205-1H11 (Donor 4)
same,"Reactivity (proliferation), Mean","Donor 4 COP T-Cell Lines; T-cell line 205-1B4, 1 μg/mL antigen, No Antigen 830",843 RLU
same,"Reactivity (proliferation), Mean","Donor 4 COP T-Cell Lines; T-cell line 205-1B4, 3 μg/mL antigen, No Antigen 830",890 RLU
same,"Reactivity (proliferation), Mean","Donor 4 COP T-Cell Lines; T-cell line 205-1B4, 10 μg/mL antigen, No Antigen 830",845 RLU
same,"Reactivity (proliferation), Mean","Donor 4 COP T-Cell Lines; T-cell line 205-1B4, 30 μg/mL antigen, No Antigen 830",766 RLU
same,"Reactivity (proliferation), Mean","Donor 4 COP T-Cell Lines; T-cell line 205-1C4, 1 μg/mL antigen, No Antigen 4464",4856 RLU
same,"Reactivity (proliferation), Mean","Donor 4 COP T-Cell Lines; T-cell line 205-1C4, 3 μg/mL antigen, No Antigen 4464",5584 RLU
same,"Reactivity (proliferation), Mean","Donor 4 COP T-Cell Lines; T-cell line 205-1C4, 10 μg/mL antigen, No Antigen 4464",5666 RLU
same,"Reactivity (proliferation), Mean","Donor 4 COP T-Cell Lines; T-cell line 205-1C4, 30 μg/mL antigen, No Antigen 4464",5137 RLU
same,"Proliferation (luminescent ATP assay), Mean",Donor 4 COP T-Cell Lines; 1 μg/mL antigen,2424
same,"Proliferation (luminescent ATP assay), Mean",Donor 4 COP T-Cell Lines; 3 μg/mL antigen,2439
same,"Proliferation (luminescent ATP assay), Mean",Donor 4 COP T-Cell Lines; 10 μg/mL antigen,3035
same,"Reactivity (proliferation), Mean","Donor 4 COP T-Cell Lines; T-cell line 205-1H5, 1 μg/mL antigen, No Antigen 749",648 RLU
same,"Reactivity (proliferation), Mean","Donor 4 COP T-Cell Lines; T-cell line 205-1H5, 3 μg/mL antigen, No Antigen 749",696 RLU
same,"Reactivity (proliferation), Mean","Donor 4 COP T-Cell Lines; T-cell line 205-1H5, 10 μg/mL antigen, No Antigen 749",698 RLU
same,"Reactivity (proliferation), Mean","Donor 4 COP T-Cell Lines; T-cell line 205-1H5, 30 μg/mL antigen, No Antigen 749",669 RLU
